# Reference: paper PMC7162861, “Synthesis, cytotoxicity, pharmacokinetic profile, binding with DNA and BSA of new imidazo[1,2-a]pyrazine-benzo[d]imidazol-5-yl hybrids” (Scientific Reports, 2020)
# How the values were obtained:
# NCI-H226 = assay: NCI cytotoxicity screen, Non-Small Cell Lung Cancer panel; assay type: cell-based, human; details: Homo sapiens, single dose 10 µM, negative = lethal, read-out: Percent growth inhibition
# Procedure: (§1) Cytotoxicity was performed at National Cancer Institute (NCI), Bethesda, USA as per their protocols.
# NCI-H322M = assay: as above; assay type: cell-based, human; details: Homo sapiens, single dose 10 µM, negative = lethal, read-out: Percent growth inhibition
# Procedure: as §1
# NCI-H23 = assay: as above; assay type: cell-based, human; details: Homo sapiens, single dose 10 µM, negative = lethal, read-out: Percent growth inhibition
# Procedure: as §1
# NCI-522 = assay: as above; assay type: cell-based, human; details: Homo sapiens; NCI-522; single dose 10 µM; negative = lethal; read-out: Percent growth inhibition
# Procedure: as §1
# SK-MEL-28 = assay: NCI cytotoxicity screen, Melanoma panel; assay type: cell-based; details: Homo sapiens, single dose 10 µM, negative = lethal, read-out: Percent growth inhibition
# Procedure: as §1
# SK-MEL-2 = assay: NCI cytotoxicity screen, Melanoma panel; assay type: cell-based; details: Homo sapiens, single dose 10 µM, negative = lethal, read-out: Percent growth inhibition
# Procedure: as §1
# SK-MEL-5 = assay: NCI cytotoxicity screen, Melanoma panel; assay type: cell-based; details: Homo sapiens, single dose 10 µM, negative = lethal, read-out: Percent growth inhibition
# Procedure: as §1
# MDA-MB-435 = assay: NCI cytotoxicity screen, Melanoma panel; assay type: cell-based; details: Homo sapiens, MDA-MB-435, read-out: Percent growth inhibition
# Procedure: as §1
# MALME-3M = assay: NCI cytotoxicity screen, Melanoma panel; assay type: cell-based; details: Homo sapiens; MALME-3M; single dose 10 µM; negative = lethal; read-out: Percent growth inhibition
# Procedure: as §1
# UACC-257 = assay: NCI cytotoxicity screen, Melanoma panel; assay type: cell-based; details: Homo sapiens, single dose 10 µM, negative = lethal, read-out: Percent growth inhibition
# Procedure: as §1
# OVCAR-3 = assay: NCI cytotoxicity screen, Ovarian Cancer panel; assay type: cell-based, human; details: Homo sapiens; OVCAR-3; single dose 10 µM; negative = lethal; read-out: Percent growth inhibition
# Procedure: as §1
# HOP-92 = assay: NCI cytotoxicity screen, Non-Small Cell Lung Cancer panel; assay type: cell-based; details: Homo sapiens, single dose 10 µM, negative = lethal, read-out: Percent growth inhibition
# Procedure: as §1
# NCI-H460 = assay: as above; assay type: cell-based; details: Homo sapiens, single dose 10 µM, negative = lethal, read-out: Percent growth inhibition
# Procedure: as §1
# HOP-62 = assay: as above; assay type: cell-based; details: Homo sapiens, single dose 10 µM, negative = lethal, read-out: Percent growth inhibition
# Procedure: as §1
# EXVX = assay: as above; assay type: cell-based; details: Homo sapiens; EXVX; single dose 10 µM; negative = lethal; read-out: Percent growth inhibition
# Procedure: as §1
# A549/ATCC = assay: as above; assay type: cell-based; details: Homo sapiens; A549/ATCC; single dose 10 µM; negative = lethal; read-out: Percent growth inhibition
# Procedure: as §1
# OVCAR-8 = assay: NCI cytotoxicity screen, Ovarian Cancer panel; assay type: cell-based; details: Homo sapiens, single dose 10 µM, negative = lethal, read-out: Percent growth inhibition
# Procedure: as §1
# NCI/ADR-RES = assay: NCI cytotoxicity screen, Ovarian Cancer panel; assay type: cell-based; details: Homo sapiens, single dose 10 µM, negative = lethal, read-out: Percent growth inhibition
# Procedure: as §1
# SK-OV-3 = assay: NCI cytotoxicity screen, Ovarian Cancer panel; assay type: cell-based; details: Homo sapiens, single dose 10 µM, negative = lethal, read-out: Percent growth inhibition
# Procedure: as §1
# OVCAR-4 = assay: NCI cytotoxicity screen, Ovarian Cancer panel; assay type: cell-based; details: Homo sapiens; OVCAR-4; single dose 10 µM; negative = lethal; read-out: Percent growth inhibition
# Procedure: as §1
# OVCAR-5 = assay: NCI cytotoxicity screen, Ovarian Cancer panel; assay type: cell-based; details: Homo sapiens, single dose 10 µM, negative = lethal, read-out: Percent growth inhibition
# Procedure: as §1
# IGROV1 = assay: NCI cytotoxicity screen, Ovarian Cancer panel; assay type: cell-based; details: Homo sapiens, IGROV-1, single dose 10 µM, negative = lethal, read-out: Percent growth inhibition
# Procedure: as §1
# SNB-19 = assay: NCI cytotoxicity screen, CNS Cancer panel; assay type: cell-based; details: Homo sapiens; SNB-19; single dose 10 µM; negative = lethal; read-out: Percent growth inhibition
# Procedure: as §1
# SNB-75 = assay: NCI cytotoxicity screen, CNS Cancer panel; assay type: cell-based; details: Homo sapiens, single dose 10 µM, negative = lethal, read-out: Percent growth inhibition
# Procedure: as §1
# U251 = assay: NCI cytotoxicity screen, CNS Cancer panel; assay type: cell-based; details: Homo sapiens, U-251; U251; single dose 10 µM; negative = lethal; read-out: Percent growth inhibition
# Procedure: as §1
# SF-268 = assay: NCI cytotoxicity screen, CNS Cancer panel; assay type: cell-based; details: Homo sapiens, single dose 10 µM, negative = lethal, read-out: Percent growth inhibition
# Procedure: as §1
# SF-295 = assay: NCI cytotoxicity screen, CNS Cancer panel; assay type: cell-based; details: Homo sapiens, single dose 10 µM, negative = lethal, read-out: Percent growth inhibition
# Procedure: as §1
# SF-539 = assay: NCI cytotoxicity screen, CNS Cancer panel; assay type: cell-based; details: Homo sapiens, single dose 10 µM, negative = lethal, read-out: Percent growth inhibition
# Procedure: as §1
# HCC-2998 = assay: NCI cytotoxicity screen, Colon Cancer panel; assay type: cell-based, human; details: Homo sapiens; HCC-2998; single dose 10 µM; negative = lethal; read-out: Percent growth inhibition
# Procedure: as §1
# SW-620 = assay: NCI cytotoxicity screen, Colon Cancer panel; assay type: cell-based, human; details: Homo sapiens, single dose 10 µM, negative = lethal, read-out: Percent growth inhibition
# Procedure: as §1
# KM12 = assay: NCI cytotoxicity screen, Colon Cancer panel; assay type: cell-based, human; details: Homo sapiens, single dose 10 µM, negative = lethal, read-out: Percent growth inhibition
# Procedure: as §1
# A498 = assay: NCI cytotoxicity screen, Renal Cancer panel; assay type: cell-based; details: Homo sapiens, single dose 10 µM, negative = lethal, read-out: Percent growth inhibition
# Procedure: as §1
# UO-31 = assay: NCI cytotoxicity screen, Renal Cancer panel; assay type: cell-based; details: Homo sapiens, single dose 10 µM, negative = lethal, read-out: Percent growth inhibition
# Procedure: as §1
# RXF 393 = assay: NCI cytotoxicity screen, Renal Cancer panel; assay type: cell-based; details: Homo sapiens, single dose 10 µM, negative = lethal, read-out: Percent growth inhibition
# Procedure: as §1
# ACHN = assay: NCI cytotoxicity screen, Renal Cancer panel; assay type: cell-based; details: Homo sapiens, single dose 10 µM, negative = lethal, read-out: Percent growth inhibition
# Procedure: as §1
# SN12C = assay: NCI cytotoxicity screen, Renal Cancer panel; assay type: cell-based; details: Homo sapiens, single dose 10 µM, negative = lethal, read-out: Percent growth inhibition
# Procedure: as §1
# 786-0 = assay: NCI cytotoxicity screen, Renal Cancer panel; assay type: cell-based, human; details: Homo sapiens, single dose 10 µM, negative = lethal, read-out: Percent growth inhibition
# Procedure: as §1
# TK-10 = assay: NCI cytotoxicity screen, Renal Cancer panel; assay type: cell-based, human; details: Homo sapiens, single dose 10 µM, negative = lethal, read-out: Percent growth inhibition
# Procedure: as §1
# M14 = assay: NCI cytotoxicity screen, Melanoma panel; assay type: cell-based, human; details: Homo sapiens, single dose 10 µM, negative = lethal, read-out: Percent growth inhibition
# Procedure: as §1
# LOX IMVI = assay: NCI cytotoxicity screen, Melanoma panel; assay type: cell-based, human; details: Homo sapiens, single dose 10 µM, negative = lethal, read-out: Percent growth inhibition
# Procedure: as §1
# COLO 205 = assay: NCI cytotoxicity screen, Colon Cancer panel; assay type: cell-based; details: Homo sapiens, single dose 10 µM, negative = lethal, read-out: Percent growth inhibition
# Procedure: as §1
# HT29 = assay: NCI cytotoxicity screen, Colon Cancer panel; assay type: cell-based; details: Homo sapiens, HT-29; HT29; single dose 10 µM; negative = lethal; read-out: Percent growth inhibition
# Procedure: as §1
# HCT-116 = assay: NCI cytotoxicity screen, Colon Cancer panel; assay type: cell-based; details: Homo sapiens, single dose 10 µM, negative = lethal, read-out: Percent growth inhibition
# Procedure: as §1
# HCT-15 = assay: NCI cytotoxicity screen, Colon Cancer panel; assay type: cell-based; details: Homo sapiens, single dose 10 µM, negative = lethal, read-out: Percent growth inhibition
# Procedure: as §1
# MDA-MB-468 = assay: NCI cytotoxicity screen, Breast Cancer panel; assay type: cell-based; details: Homo sapiens, single dose 10 µM, negative = lethal, read-out: Percent growth inhibition
# Procedure: as §1
# MDA-MB-231/ATCC = assay: NCI cytotoxicity screen, Breast Cancer panel; assay type: cell-based; details: Homo sapiens, MDA-MB-231, read-out: Percent growth inhibition
# Procedure: as §1
# BT-549 = assay: NCI cytotoxicity screen, Breast Cancer panel; assay type: cell-based; details: Homo sapiens, single dose 10 µM, negative = lethal, read-out: Percent growth inhibition
# Procedure: as §1
# HS 578 T = assay: NCI cytotoxicity screen, Breast Cancer panel; assay type: cell-based; details: Homo sapiens; HS 578T; single dose 10 µM; negative = lethal; read-out: Percent growth inhibition
# Procedure: as §1
# MCF7 = assay: NCI cytotoxicity screen, Breast Cancer panel; assay type: cell-based; details: Homo sapiens, single dose 10 µM, negative = lethal, read-out: Percent growth inhibition
# Procedure: as §1
# T-47D = assay: NCI cytotoxicity screen, Breast Cancer panel; assay type: cell-based; details: Homo sapiens, T47D, T-47D; single dose 10 µM; negative = lethal; read-out: Percent growth inhibition
# Procedure: as §1
# SR = assay: NCI cytotoxicity screen, Leukemia panel; assay type: cell-based; details: Homo sapiens, single dose 10 µM, negative = lethal, read-out: Percent growth inhibition
# Procedure: as §1
# K-562 = assay: NCI cytotoxicity screen, Leukemia panel; assay type: cell-based; details: Homo sapiens, K562; K-562; single dose 10 µM; negative = lethal; read-out: Percent growth inhibition
# Procedure: as §1
# RPMI-8226 = assay: NCI cytotoxicity screen, Leukemia panel; assay type: cell-based; details: Homo sapiens; RPMI-8226; single dose 10 µM; negative = lethal; read-out: Percent growth inhibition
# Procedure: as §1
# MOLT-4 = assay: NCI cytotoxicity screen, Leukemia panel; assay type: cell-based; details: Homo sapiens, MOLT-4, MOLT-4; single dose 10 µM; negative = lethal; read-out: Percent growth inhibition
# Procedure: as §1
# HL-60(TB) = assay: NCI cytotoxicity screen, Leukemia panel; assay type: cell-based; details: Homo sapiens, HL-60, HL-60(TB); single dose 10 µM; negative = lethal; read-out: Percent growth inhibition
# Procedure: as §1
# CCRF-CEM = assay: NCI cytotoxicity screen, Leukemia panel; assay type: cell-based; details: Homo sapiens, single dose 10 µM, negative = lethal, read-out: Percent growth inhibition
# Procedure: as §1
# PC-3 = assay: NCI cytotoxicity screen, Prostate Cancer panel; assay type: cell-based, human; details: Homo sapiens, single dose 10 µM, negative = lethal, read-out: Percent growth inhibition
# Procedure: as §1
# DU-145 = assay: NCI cytotoxicity screen, Prostate Cancer panel; assay type: cell-based, human; details: Homo sapiens, single dose 10 µM, negative = lethal, read-out: Percent growth inhibition
# Procedure: as §1
smiles,measurement,setting,value
"Brc1cn2ccnc2c(-c2ccc3c(c2)ncn3C2CCCCC2)n1 [Compound 8, 6-bromo-8-(1-cyclohexyl-1H-benzo[d]imidazol-5-yl)imidazo[1,2-a]pyrazine]",inhibition at 10 µM,NCI-H226,3.73%
same,inhibition at 10 µM,NCI-H322M,10.9%
same,inhibition at 10 µM,NCI-H23,8.76%
same,inhibition at 10 µM,NCI-522,15.2%
same,inhibition at 10 µM,SK-MEL-28,< 1%
same,inhibition at 10 µM,SK-MEL-2,0.53%
same,inhibition at 10 µM,SK-MEL-5,8.35%
same,inhibition at 10 µM,MDA-MB-435,< 1%
same,inhibition at 10 µM,MALME-3M,< 1%
same,inhibition at 10 µM,UACC-257,< 1%
same,inhibition at 10 µM,OVCAR-3,< 1%
same,inhibition at 10 µM,HOP-92,21.9%
same,inhibition at 10 µM,NCI-H460,3.26%
same,inhibition at 10 µM,HOP-62,13%
same,inhibition at 10 µM,EXVX,10.3%
same,inhibition at 10 µM,A549/ATCC,4.8%
same,inhibition at 10 µM,OVCAR-8,3.55%
same,inhibition at 10 µM,NCI/ADR-RES,5.47%
same,inhibition at 10 µM,SK-OV-3,6.59%
same,inhibition at 10 µM,OVCAR-4,9.25%
same,inhibition at 10 µM,OVCAR-5,< 1%
same,inhibition at 10 µM,IGROV1,8.45%
same,inhibition at 10 µM,SNB-19,10.5%
same,inhibition at 10 µM,SNB-75,16.4%
same,inhibition at 10 µM,U251,< 1%
same,inhibition at 10 µM,SF-268,5.8%
same,inhibition at 10 µM,SF-295,7.58%
same,inhibition at 10 µM,SF-539,6.65%
same,inhibition at 10 µM,HCC-2998,3.13%
same,inhibition at 10 µM,SW-620,< 1%
same,inhibition at 10 µM,KM12,< 1%
same,inhibition at 10 µM,A498,3.51%
same,inhibition at 10 µM,UO-31,40.1%
same,inhibition at 10 µM,RXF 393,< 1%
same,inhibition at 10 µM,ACHN,< 1%
same,inhibition at 10 µM,SN12C,< 1%
same,inhibition at 10 µM,786-0,1.3%
same,inhibition at 10 µM,TK-10,< 1%
same,inhibition at 10 µM,M14,< 1%
same,inhibition at 10 µM,LOX IMVI,9.14%
same,inhibition at 10 µM,COLO 205,< 1%
same,inhibition at 10 µM,HT29,4.48%
same,inhibition at 10 µM,HCT-116,6.06%
same,inhibition at 10 µM,HCT-15,4.25%
same,inhibition at 10 µM,MDA-MB-468,6.27%
same,inhibition at 10 µM,MDA-MB-231/ATCC,3.12%
same,inhibition at 10 µM,BT-549,6.38%
same,inhibition at 10 µM,HS 578 T,2.68%
same,inhibition at 10 µM,MCF7,37.6%
same,inhibition at 10 µM,T-47D,25.3%
same,inhibition at 10 µM,SR,20.6%
same,inhibition at 10 µM,K-562,17.4%
same,inhibition at 10 µM,RPMI-8226,< 1%
same,inhibition at 10 µM,MOLT-4,17.4%
same,inhibition at 10 µM,HL-60(TB),10.5%
same,inhibition at 10 µM,CCRF-CEM,< 1%
same,inhibition at 10 µM,PC-3,10.3%
same,inhibition at 10 µM,DU-145,< 1%
